According to US5547972A, “Therapeutic agents useful for treating inflammatory diseases” (The Boots Company PLC, priority 1991, dated 1996):
Structures can show the parent of a compound that is named as a salt. Where two headings read alike, the source gives them in different places.

System: Zymosan Stimulated Macrophaqes
Assay: Test A: Inhibition of Arachidonic Acid Release from Zymosan Stimulated Macrophages
Assay type: cell-based, mouse (female MF1)
Details: inhibition of arachidonic acid release, six concentrations (100, 50, 20, 10, 5 and 1 μM), 5 h with zymosan, read-out: Test A IC50
Procedure: Inhibition of Arachidonic Acid Release from Zymosan Stimulated Macrophaqes
Female MF1 mice (weighing 20 to 25 g) were killed using a rising concentration of CO2. The mice were laid on their backs and the abdomens wiped with 70% alcohol. The skin was pulled back, exposing the peritoneal wall. Medium A (5 ml) (see below) was injected into the peritoneal cavity of each mouse followed by approximately 1 ml of air using a 20 ml syringe and a 21 G×40 mm needle in order to form a suspension of macrophage cells. The medium and cells were then removed using a 19 G×40 mm needle. The resulting suspension was returned to a sterile beaker kept on ice. The extracts from all the mice were pooled and this pooled cell suspension was counted using a Coulter counter and adjusted to a final cell count of 1-1.3×10^6 cells/ml prior to labelling with [^3 H]-arachidonic acid. Typically five mice provided sufficient cells for each multiwell plate.
Sufficient [^3 H]-arachidonic acid in ethanol to give a final concentration of 1.6 μCi/ml (equivalent to 40 μCi/plate) was blown to dryness under nitrogen. The arachidonic acid was then resuspended in 1 or 2 ml of the cell suspension which was then mixed with the remainder of the cell suspension in a centrifuge bottle. The labelled cell suspension was then plated out into sterile plastic 96 flat-bottomed well plates (250 μl per well) and incubated overnight at 37° C. in a moist atmosphere of 5% CO2, 95% air.
The following day, non-adherent cells were removed by washing 3 times with sterile phosphate buffered saline (PBS). The adherent peritoneal macrophages were then cultured for a further 24 hours in the presence or absence of drugs, in medium B (see below) at 37° in a 5% CO2 atmosphere in order to measure the effects of drugs on the spontaneous release of arachidonic acid in the absence of stimulus. After this incubation, supernatants were removed to give media 1 and stored in sealed multi-well plates at 4° C. prior to scintillation counting. Drugs which potentiated spontaneous release of arachidonic acid (125% of controls) were deemed to be toxic at the concentration at which this phenomenon occurred. The supernatants were replaced by fresh medium C containing fresh drug and a stimulus. Three drugs were tested at six concentrations (100, 50, 20, 10, 5 and 1 μM) in replicates of four on each plate. The other wells contained controls consisting of a positive control (e.g. dexamethasone), medium (B) only and medium C only.
Incubation was then continued for a further 5 hours, whereupon the supernatants were collected to give media 2 and the adherent cells washed with PBS. The cells were then lysed with 100 μl of 0.1% TRITON® X100 in a 0.1% solution of bovine serum albumin in 0.9% saline and mechanically disrupted to give cell lysates. These supernatants (media 2) and cell lysates (Cells) were also stored in sealed multi-well plates at 4° C. prior to scintillation counting. 200 μl aliquots of media, or 100 μl aliquots of cells were counted using 2 ml of OPTIPHASE "HIGH SAFE" (Trademark of LKB) as scintillant.
The percentage of arachidonic acid released was calculated using the mean values for each group of 4 wells in the following equation. [formula] cpm=courts per minute
The value for the arachidonic acid release in the absence of stimulus (spontaneous, cpm of media 2) from cells which had been exposed to neither stimulus nor drug was subtracted from all equivalent values (cpm media 2, stimulated with or without drug) to give the net stimulated release. The percentage inhibition of arachidonic acid release caused by a drug may then be calculated using the following equation. [formula]
Compounds of formula I were tested at six concentrations (100, 50, 20, 10, 5 and 1 μM) and IC50 values calculated. Compounds with IC50 values<100 μM are considered to be active. Advantageous compounds have an IC50 value <50 μM.
Medium A (for peritoneal lavage) […]

Row | Compound | IC50 (Mus musculus, Macrophage, 5 h) | also measured
1 | CC(NCCCn1ccnc1)c1ccc(Cl)c(Cl)c1 (stereo not drawn) [Example 3, N-[1-(3,4-Dichlorophenyl)ethyl]-3-(imidazol-1-yl)propylamine] | 60 µM | –
2 | CC(NCCCn1ccnc1)c1ccc(F)cc1 (stereo not drawn) [Example 4, N-[1-(4-Fluorophenyl)ethyl]-3-(imidazol-1-yl)propylamine] | 95 µM | –
3 | CC(NCCCn1ccnc1)c1ccc(N(C)C)cc1 (stereo not drawn) [Example 6, N-[1-(4-Dimethylaminophenyl)ethyl]-3-(imidazol-1-yl)-propylamine] | 92 µM | –
4 | Cc1cc(C(C)NCCCn2ccnc2)ccc1Cl (stereo not drawn) [Example 12, N-[1-(4-Chloro-3-methylphenyl)ethyl]-3-(imidazol-1-yl)propylamine] | 36 µM | –
5 | CC(NCCCn1ccnc1)c1cc(Cl)ccc1Cl (stereo not drawn) [Example 15, N-[1-(2,5-Dichlorophenyl)ethyl]-3-(imidazol-1-yl)propylamine] | 72 µM | –
6 | COc1cc(Cl)ccc1C(C)NCCCn1ccnc1 (stereo not drawn) [Example 17, N-[1-(4-Chloro-2-methoxyphenyl)ethyl]-3-(imidazol-1-yl)propylamine] | 90 µM | –
7 | CCOc1cc(Cl)ccc1C(C)NCCCn1ccnc1 (stereo not drawn) [Example 18, N-[1-(4-Chloro-2-ethoxyphenyl)ethyl]-3-(imidazol-1-yl)propylamine] | 50 µM | –
8 | CCOC(=O)c1ccc(C(C)NCCCn2ccnc2)cc1 (stereo not drawn) [Example 20, Ethyl 4-{1-[3-(imidazol-1-yl)propylamino]ethyl}benzoate] | 70 µM | –
9 | CCc1ccc(C(C)NCCCn2ccnc2)cc1 (stereo not drawn) [Example 21, N-[1-(4-Ethylphenyl)ethyl]-3-(imidazol-1-yl)propylamine hemioxalate] | 65 µM | –
10 | CC(NCCCn1ccnc1)c1ccc(OC(F)(F)F)cc1 (stereo not drawn) [Example 23, 3-(Imidazol-1-yl)-N-[1-(4-trifluoromethoxyphenyl)ethyl]propylamine sesquicitrate] | 22 µM | –
11 | Brc1ccc(CNCCCn2ccnc2)cc1 [Example 36, N-(4-Bromobenzyl)-3-(imidazol-1-yl)propylamine] | 90 µM | –
12 | FC(F)(F)c1ccc(CNCCCn2ccnc2)cc1 [Example 37, 3-(Imidazol-1-yl)-N-(4-trifluoromethylbenzyl)propylamine dihydrochloride] | 75 µM | –
13 | FC(F)(F)Oc1ccc(CNCCCn2ccnc2)cc1 [Example 38, 3-(Imidazol-1-yl)-N-(4-trifluoromethoxybenzyl)propylamine dihydrochloride] | 80 µM | –
14 | Cc1cn(CCCNCc2ccc(Cl)cc2)c(C)n1 [Example 42, N-(4-chlorobenzyl)-3-(2,4-dimethylimidazol-1-yl)propylamine dihydrochloride] | 8 µM | –
15 | Clc1ccc(CNCCCCn2ccnc2)cc1 [Example 46, N-(4-Chlorobenzyl)-4-(imidazol-1-yl)butylamine dihydrochloride] | 86 µM | –
16 | Cc1cn(CCCNCc2ccc(Cl)cc2)c(-c2ccccc2)n1 [Example 48, N-(4-chlorobenzyl)-3-(4-methyl-2-phenylimidazol-1-yl)propylamine] | 15 µM | –
17 | CC(C)(CNCc1ccc(Cl)cc1)Cn1ccnc1 [Example 61, N-(4-chlorobenzyl)-3-(imidazol-1-yl)-2,2-dimethylpropylamine] | 70 µM | –
18 | CC(C)(NCCCn1ccnc1)c1ccc(Cl)cc1 [Example 99, N-[1-(4-chlorophenyl)-1-methylethyl]-3-(imidazol-1-yl)propylamine citrate] | – | IC50 (citrate): 14 µM
19 | CC(C)(NCCCn1ccnc1)c1ccc(Cl)cc1 [Example 100, N-[1-(4-chlorophenyl)-1-methylethyl]-3-(imidazol-1-yl)propylamine (+)tartrate dihydrate] | – | IC50 (dihydrate): 20 µM
20 | A mixture of N-[1-(4-chlorophenyl)-1-methylethyl]-3-(4-methylimidazol-1-yl)propylamine and N-[1-(4-chlorophenyl)-1-methylethyl]-3-(5-methylimidazol-1-yl)propylamine [Example 69] | – | IC50: 11 µM

Further lines, with some results ahead:

Row | IC50 (Mus musculus, Macrophage, 5 h) | Compound | also measured
21 | 7 µM | CC(C)(NCCCCCCCCn1ccnc1)c1ccc(Cl)cc1 [Example 63, N-[1-(4-chlorophenyl)-1-methylethyl]-8-(imidazol-1-yl)octylamine] | –
22 | 70 µM | CC(C)(NCCCn1cnc([N+](=O)[O-])c1)c1ccc(Cl)cc1 [Example 74, N-[1-(4-Chlorophenyl)-1-methylethyl]-3-(4-nitroimidazol-1-yl)propylamine] | –
23 | 85 µM | CC(C)(NCCCn1cnc(CO)c1)c1ccc(Cl)cc1 [Example 79, 1-{3-[1-(4-Chlorophenyl)-1-methylethylamino]propyl}imidazol-4-yl-methanol] | –
24 | 14 µM | CC(C)(NCCCn1ccnc1)c1ccc(-c2ccccc2)cc1 [Example 81, N-[1-(4-Biphenylyl)-1-methylethyl]-3-(imidazol-1-yl)propylamine dihydrochloride] | –
25 | 28 µM | CC(C)(NCCCn1ccnc1)c1ccc2ccccc2c1 [Example 83, N-[1-(2-Naphthyl)-1-methylethyl]-3-(imidazol-1-yl)propylamine dihydrochloride hemihydrate] | –
26 | 78 µM | CCC(CC)(NCCCn1cnc(CO)c1)c1ccccc1 [Example 86, 1-[3-(1-ethyl-1-phenylpropylamino)propyl]imidazol-4-yl-methanol] | –
27 | 12 µM | CC(C)(NCCCn1ccnc1)c1ccc(OCc2ccccc2)cc1 [Example 87, N-[1-(4-Benzyloxyphenyl)-1-methylethyl]-3-(imidazol-1-yl)propylaminedihydrochloride] | –
28 | 62 µM | CC(c1ccc(Cl)cc1)N(C)CCCn1ccnc1 (stereo not drawn) [Example 90, N-[1-(4-chlorophenyl)ethyl]-3-(imidazol-1-yl)-N-methylpropylamine] | –
29 | 20 µM | CCCOC(=O)c1ccc(CNCCCn2ccnc2C)cc1 [Example 94, propyl 4-[3-(2-methylimidazol-1-yl)propylaminomethyl]benzoate] | –
30 | 4 µM | Cc1nccn1CCCCCNCc1ccc(Cl)cc1 [Example 95, N-(4-chlorobenzyl)-5-(2-methylimidazol-1-yl)pentylamine] | –
31 | 75 µM | CN(CCCn1ccnc1)C(C)(C)c1ccc(Cl)cc1 [Example 96, N-[1-(4-chlorophenyl)-1-methylethyl]-3-(imidazol-1-yl)-N-methylpropylamine] | –
32 | 60 µM | Cc1nccn1CCCN(C)Cc1ccc(Cl)cc1 [Example 97, N-(4-chlorobenzyl)-N-methyl-3-(2-methylimidazol-1-yl)propylamine] | –
33 | 51 µM | CCC(CC)(NCCCn1cnc(COC(C)=O)c1)c1ccccc1 [Example 103, 1-[3-(α,α-diethylbenzylamino)propyl]imidazol-4-ylmethyl acetate] | –
